Measurements reported in US20090247576A1, “ANTI-TUMOR AGENT FOR MULTIPLE MYELOMA” (Eisai R & D Management Co., Ltd., priority 2005, published 2009).

Target: T1, FGFR3 kinase (human recombinant GST fusion protein) (Homo sapiens, UniProt P22607)
T1 construct: GST; host or cells: Sf9 insect cells, baculovirus
Test: FGFR3 cell free kinase assay (33P-ATP incorporation, FlashPlate, ProQinase)
Assay type: biochemical
Conditions: test substance: methanesulfonate; 1 μM [γ-33P]-ATP; substrate biotinylated Poly(Glu, Tyr)4:1; 30° C., 80 minutes; 10 points from 10 μM to 0.0003 μM; read-out: FGFR3 kinase-inhibiting activity (IC50)
Protocol: A FGFR3-inhibiting activity of 4-(3-chloro-4-(cyclopropylaminocarbonyl)aminophenoxy)-7-methoxy-6-quinolinecarbox amide was examined by ProQinase (Freiburg, GmbH) on our request. Specifically, the FGFR3-inhibiting activity was determined as follows. FGFR3 kinase was expressed in an insect cell (Spondoptea frugiperda 9 (Sf9)) as human recombinant GST fusion protein by the method of Baculovirus Expression System. The expressed recombinant protein was purified by affinity chromatography using GSH-agarose (from Sigma) or Ni-NTH-agarose (from Qiagen). The purity and identification of the protein were confirmed by SDS-PAGE, silver staining and western blotting using an antibody specific to FGFR3 kinase. Kinase assay was carried out as follows. […] The amount of ^33Pi incorporation was assessed by determining the radioactivity on the plate with a microplate scintillation counter (from Microbeta, Wallac). […] The kinase activity in the presence of the test substance at each concentration was assessed as percentage of the value obtained by subtracting the 0% value from the radioactivity value to the value obtained by subtracting the 0% value from the 100% value.

T1 sequence (P22607 23-806): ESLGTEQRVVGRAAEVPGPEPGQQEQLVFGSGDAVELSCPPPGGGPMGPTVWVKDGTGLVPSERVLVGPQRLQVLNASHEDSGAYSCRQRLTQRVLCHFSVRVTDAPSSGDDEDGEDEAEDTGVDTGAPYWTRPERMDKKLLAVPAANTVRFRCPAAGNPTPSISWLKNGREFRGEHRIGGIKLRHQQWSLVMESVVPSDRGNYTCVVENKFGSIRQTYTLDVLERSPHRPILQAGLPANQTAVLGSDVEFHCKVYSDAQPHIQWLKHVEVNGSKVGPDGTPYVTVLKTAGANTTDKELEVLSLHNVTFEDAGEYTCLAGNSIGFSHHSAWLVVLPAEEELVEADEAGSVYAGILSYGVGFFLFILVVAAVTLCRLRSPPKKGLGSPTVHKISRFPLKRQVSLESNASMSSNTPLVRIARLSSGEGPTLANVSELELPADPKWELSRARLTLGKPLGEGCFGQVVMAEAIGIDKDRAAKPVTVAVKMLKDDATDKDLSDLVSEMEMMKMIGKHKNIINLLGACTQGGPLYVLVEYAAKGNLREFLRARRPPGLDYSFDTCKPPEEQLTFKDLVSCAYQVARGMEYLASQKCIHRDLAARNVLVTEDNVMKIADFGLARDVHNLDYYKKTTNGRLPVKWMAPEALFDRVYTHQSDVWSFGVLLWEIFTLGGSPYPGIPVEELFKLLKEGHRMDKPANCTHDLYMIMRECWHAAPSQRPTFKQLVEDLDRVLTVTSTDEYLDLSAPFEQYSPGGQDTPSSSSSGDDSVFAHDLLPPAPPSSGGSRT

IC50: 0.14 µM
SMILES: COc1cc2nccc(Oc3ccc(NC(=O)NC4CC4)c(Cl)c3)c2cc1C(N)=O [4-(3-chloro-4-(cyclopropylaminocarbonyl)aminophenoxy)-7-methoxy-6-quinolinecarbox amide]
